Laboratory results: patent US9247759B2, “Identification of human T2R receptors that respond to bitter compounds that elicit the bitter taste in compositions, and the use thereof in assays to identify compounds that inhibit (block) bitter taste in compositions and use thereof” (SENOMYX, INC., priority 2007, dated 2016)
pIC50: −log10 of the molar value.

How the values were obtained:
hT2R64 = hT2R64 (Homo sapiens (Human), UniProt P59538); assay: hT2R panel inhibition, transient HEK293 G16g44, agonist Aristolochic Acid 1 μM; type: cell-based; details: HEK293, compound at 25 μM; receptor activated to EC80 with the corresponding agonist; read-out: screening result against bitter receptor 64
Outline: (§1)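 Panel: 22 human T2Rs, individually transient in stable G16g44 cells. Stim: EC80 agonist. Output: % reduction of activity by test cpd.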

hT2R4 = hT2R4 (Homo sapiens (Human), UniProt Q9NYW5); assay: hT2R panel inhibition, transient HEK293 G16g44, agonist Chloroquine pH6.5 5 mM; type: cell-based; details: HEK293, compound at 25 μM; receptor activated to EC80 with the corresponding agonist; class symbols; read-out: screening result against bitter receptor 4
Outline: as §1

hT2R61 = hT2R61 (Homo sapiens (Human), UniProt P59537); assay: hT2R panel inhibition, transient HEK293 G16g44, agonist Aristolochic Acid 25 nM; type: cell-based; details: HEK293, compound at 25 μM; receptor activated to EC80 with the corresponding agonist; read-out: screening result against bitter receptor 61
Outline: as §1

hT2R71 = hT2R71 (Homo sapiens (Human), UniProt P59536); assay: hT2R panel inhibition, transient HEK293 G16g44, agonist Picric Acid 10 μM; type: cell-based; details: HEK293, compound at 25 μM; receptor activated to EC80 with the corresponding agonist; read-out: screening result against bitter receptor 71
Outline: as §1

hT2R44 = assay: hT2R panel inhibition, transient HEK293 G16g44, agonist Denatonium 0.5 μM; type: cell-based, human; details: compound at 25 μM; receptor activated to EC80 with the corresponding agonist
Outline: as §1

hT2R63 = assay: hT2R panel inhibition, transient HEK293 G16g44, agonist Caffeine 1 mM or Andrographolide 100 μM; type: cell-based, human; details: compound at 25 μM; receptor activated to EC80 with the corresponding agonist
Outline: as §1

hT2R67 = assay: hT2R panel inhibition, transient HEK293 G16g44, agonist Andrographolide 5 μM; type: cell-based, human; details: compound at 25 μM; receptor activated to EC80 with the corresponding agonist
Outline: as §1

hT2R14 [1] = target: T1, hT2R14 (Homo sapiens (Human), UniProt Q9NYV8); assay: hT2R panel inhibition, transient HEK293 G16g44, agonist Aristolochic Acid 2 μM; type: cell-based; details: HEK293, compound at 25 μM; receptor activated to EC80 with the corresponding agonist; read-out: screening result against bitter receptor 14
Outline: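 Agonist challenge was at EC80, with 0.5 mM andrographolide on hT2R8 and 2 μM aristolochic acid on hT2R14. Inhibition was measured in functional assays in HEK293 cells that stably carry the promiscuous G protein G16g44 and were transiently transfected with the individual receptor.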

hT2R3 = hT2R3 (Homo sapiens (Human), UniProt Q9NYW6); assay: hT2R panel inhibition, transient HEK293 G16g44, agonist Chloroquine pH6.5 50 μM; type: cell-based; details: HEK293, compound at 25 μM; receptor activated to EC80 with the corresponding agonist; read-out: screening result against bitter receptor 3
Outline: as §1

hT2R65 = assay: hT2R panel inhibition, transient HEK293 G16g44, agonist Oleuropein 1 mM; type: cell-based, human; details: compound at 25 μM; receptor activated to EC80 with the corresponding agonist
Outline: as §1

hT2R13 = hT2R13 (Homo sapiens (Human), UniProt Q9NYV9); assay: hT2R panel inhibition, transient HEK293 G16g44, agonist Oxyphenonium 1 mM; type: cell-based; details: HEK293, compound at 25 μM; receptor activated to EC80 with the corresponding agonist; read-out: screening result against bitter receptor 13
Method: Specifically, in order to evaluate the inhibitory selectivity of the Compound C compound, this compound was tested against 22 human T2Rs which were deorphaned by Senomyx. These receptors and the bitter ligands that activate these human T2Rs are reported in earlier patent applications which are incorporated by reference herein. These 22 human T2Rs are hT2R1, 3, 4, 5, 7, 8, 9, 10, 13, 14, 16, 44, 51, 54, 55, 61, 63, 64, 65, 67, 71 and 75. The amino acid and nucleic acid sequences of all of these T2Rs may be found in these earlier patent applications. These human T2Rs were each individually transiently transfected into HEK293 cells that stably express the promiscuous G protein G16g44 and functional assays were effected using these receptors as disclosed in these same patent applications. […] The ligands were used at EC80 concentration levels. The list of bitter ligands utilized and the tested ligand concentrations are contained in Table 5 of this example.
Relating to the foregoing, FIG. 5 contains experimental results wherein Compound C was tested with different agonist compounds. The inhibition activity is represented by the reduction of receptor activity in the presence of Compound C. […] These 13 hT2Rs are hT2R3, 7, 10, 14, 16, 44, 51, 55, 61, 63, 64, 65, and 71.

hT2R16 = hT2R16 (Homo sapiens (Human), UniProt Q9NYV7); assay: hT2R panel inhibition, transient HEK293 G16g44, agonist Salicin 1 mM; type: cell-based; details: HEK293, compound at 25 μM; receptor activated to EC80 with the corresponding agonist; read-out: screening result against bitter receptor 16
Outline: as §1

hT2R55 = assay: hT2R panel inhibition, transient HEK293 G16g44, agonist Cinchonine 150 μM; type: cell-based, human; details: compound at 25 μM; receptor activated to EC80 with the corresponding agonist
Outline: as §1

hT2R14 [2] = target: T1, hT2R14; assay: hT2R14 antagonist high-throughput FLIPR assay, stable cell line with G16g44, agonist aristolochic acid; type: cell-based; details: read-out: IC50 on hT2R14 bitter receptor
Outline: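 Compounds were co-applied with 3 μM aristolochic acid, a dose set to reach 70-80% of maximal hT2R14 activation. Read-out was FLIPR fluorescence in a stable HEK293 line co-expressing hT2R14 and G16g44.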

hT2R7 = hT2R7 (Homo sapiens (Human), UniProt Q9NYW3); assay: hT2R panel inhibition, transient HEK293 G16g44, agonist Chloroquine pH6.5 10 mM; type: cell-based; details: HEK293, compound at 25 μM; receptor activated to EC80 with the corresponding agonist; read-out: screening result against bitter receptor 7
Outline: as §1

hT2R10 = hT2R10 (Homo sapiens (Human), UniProt Q9NYW0); assay: hT2R panel inhibition, transient HEK293 G16g44, agonist Strychnine 50 μM; type: cell-based; details: HEK293, read-out: screening result against bitter receptor 10, compound at 25 μM; receptor activated to EC80 with the corresponding agonist
hT2R75 = hT2R75 (Homo sapiens (Human), UniProt P59540); assay: hT2R panel inhibition, transient HEK293 G16g44, agonist Strychnine 1 μM; type: cell-based; details: HEK293, read-out: screening result against bitter receptor 75, compound at 25 μM; receptor activated to EC80 with the corresponding agonist
hT2R5 = hT2R5 (Homo sapiens (Human), UniProt Q9NYW4); assay: hT2R panel inhibition, transient HEK293 G16g44, agonist Picoline 10 mM; type: cell-based; details: HEK293, compound at 25 μM; receptor activated to EC80 with the corresponding agonist; read-out: screening result against bitter receptor 5
Outline: as §1

hT2R9 = hT2R9 (Homo sapiens (Human), UniProt Q9NYW1); assay: hT2R panel inhibition, transient HEK293 G16g44, agonist Ofloxacin 1 mM; type: cell-based; details: HEK293, compound at 25 μM; receptor activated to EC80 with the corresponding agonist; read-out: screening result against bitter receptor 9
Outline: as §1

T1 sequence (Q9NYV8 whole entry): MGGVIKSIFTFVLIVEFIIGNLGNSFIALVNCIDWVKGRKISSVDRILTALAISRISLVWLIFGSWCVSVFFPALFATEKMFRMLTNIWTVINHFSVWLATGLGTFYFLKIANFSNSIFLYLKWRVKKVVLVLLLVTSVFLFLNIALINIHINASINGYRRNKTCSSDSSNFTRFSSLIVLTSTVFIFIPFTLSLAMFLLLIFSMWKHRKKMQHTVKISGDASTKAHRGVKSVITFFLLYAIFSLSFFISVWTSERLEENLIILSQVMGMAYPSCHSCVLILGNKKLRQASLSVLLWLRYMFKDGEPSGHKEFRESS
Chain of hT2R71 (P59536 whole entry): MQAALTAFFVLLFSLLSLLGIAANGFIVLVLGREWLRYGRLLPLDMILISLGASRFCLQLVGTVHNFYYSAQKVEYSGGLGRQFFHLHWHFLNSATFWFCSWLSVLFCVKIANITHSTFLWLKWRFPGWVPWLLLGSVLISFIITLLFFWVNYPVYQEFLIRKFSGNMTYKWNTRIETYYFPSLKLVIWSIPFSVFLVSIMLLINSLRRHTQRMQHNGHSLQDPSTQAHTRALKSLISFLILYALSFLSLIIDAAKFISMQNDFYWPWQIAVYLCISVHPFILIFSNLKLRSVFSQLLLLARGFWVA
Chain of hT2R16 (Q9NYV7 whole entry): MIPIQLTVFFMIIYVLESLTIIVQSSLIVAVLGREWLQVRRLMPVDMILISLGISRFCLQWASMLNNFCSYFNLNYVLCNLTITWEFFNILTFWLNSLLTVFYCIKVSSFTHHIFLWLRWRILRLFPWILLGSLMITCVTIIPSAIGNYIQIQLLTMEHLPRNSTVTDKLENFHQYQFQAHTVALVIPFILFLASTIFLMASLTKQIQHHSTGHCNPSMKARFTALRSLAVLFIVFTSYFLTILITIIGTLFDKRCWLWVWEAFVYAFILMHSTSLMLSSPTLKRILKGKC
Chain of hT2R3 (Q9NYW6 whole entry): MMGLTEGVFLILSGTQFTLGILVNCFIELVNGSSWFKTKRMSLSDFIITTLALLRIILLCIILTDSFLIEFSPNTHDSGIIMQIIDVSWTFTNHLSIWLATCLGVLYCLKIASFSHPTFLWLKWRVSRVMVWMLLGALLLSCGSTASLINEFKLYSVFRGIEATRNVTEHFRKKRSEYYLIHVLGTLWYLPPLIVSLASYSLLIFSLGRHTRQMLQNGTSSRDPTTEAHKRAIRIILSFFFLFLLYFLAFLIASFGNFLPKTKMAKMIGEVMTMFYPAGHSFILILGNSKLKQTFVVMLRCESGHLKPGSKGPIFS
Chain of hT2R64 (P59538 whole entry): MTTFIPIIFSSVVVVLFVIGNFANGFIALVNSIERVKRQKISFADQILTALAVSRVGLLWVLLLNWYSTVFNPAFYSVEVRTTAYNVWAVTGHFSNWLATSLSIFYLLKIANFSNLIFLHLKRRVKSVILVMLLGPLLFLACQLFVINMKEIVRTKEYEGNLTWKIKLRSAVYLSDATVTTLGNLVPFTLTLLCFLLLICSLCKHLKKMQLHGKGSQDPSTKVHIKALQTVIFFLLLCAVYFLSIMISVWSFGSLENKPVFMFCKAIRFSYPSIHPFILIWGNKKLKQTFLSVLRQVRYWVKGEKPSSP
Chain of hT2R13 (Q9NYV9 whole entry): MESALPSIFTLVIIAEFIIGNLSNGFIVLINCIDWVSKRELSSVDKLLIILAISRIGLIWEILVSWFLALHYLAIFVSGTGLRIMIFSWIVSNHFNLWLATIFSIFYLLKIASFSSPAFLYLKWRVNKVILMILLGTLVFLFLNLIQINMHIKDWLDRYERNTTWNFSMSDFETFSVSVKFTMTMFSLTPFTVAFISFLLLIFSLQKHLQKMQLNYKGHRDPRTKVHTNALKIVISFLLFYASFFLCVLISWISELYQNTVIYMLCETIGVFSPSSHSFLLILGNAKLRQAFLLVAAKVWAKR
Chain of hT2R61 (P59537 whole entry): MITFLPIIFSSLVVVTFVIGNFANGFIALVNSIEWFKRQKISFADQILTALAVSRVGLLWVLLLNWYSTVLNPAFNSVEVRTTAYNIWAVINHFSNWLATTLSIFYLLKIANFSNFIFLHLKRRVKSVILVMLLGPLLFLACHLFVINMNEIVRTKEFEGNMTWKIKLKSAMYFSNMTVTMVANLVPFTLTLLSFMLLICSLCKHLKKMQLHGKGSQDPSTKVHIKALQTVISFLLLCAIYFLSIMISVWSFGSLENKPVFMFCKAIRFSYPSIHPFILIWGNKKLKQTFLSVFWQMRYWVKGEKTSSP
Chain of hT2R9 (Q9NYW1 whole entry): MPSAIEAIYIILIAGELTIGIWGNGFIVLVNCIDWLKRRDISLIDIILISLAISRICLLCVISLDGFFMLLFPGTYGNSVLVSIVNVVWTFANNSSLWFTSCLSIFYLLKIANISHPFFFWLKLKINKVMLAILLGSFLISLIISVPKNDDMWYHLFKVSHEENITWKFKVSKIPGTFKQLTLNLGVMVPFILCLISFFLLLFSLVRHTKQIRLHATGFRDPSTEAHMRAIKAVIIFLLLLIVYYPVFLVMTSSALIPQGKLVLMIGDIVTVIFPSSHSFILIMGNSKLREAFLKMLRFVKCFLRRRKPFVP
Chain of hT2R75 (P59540 whole entry): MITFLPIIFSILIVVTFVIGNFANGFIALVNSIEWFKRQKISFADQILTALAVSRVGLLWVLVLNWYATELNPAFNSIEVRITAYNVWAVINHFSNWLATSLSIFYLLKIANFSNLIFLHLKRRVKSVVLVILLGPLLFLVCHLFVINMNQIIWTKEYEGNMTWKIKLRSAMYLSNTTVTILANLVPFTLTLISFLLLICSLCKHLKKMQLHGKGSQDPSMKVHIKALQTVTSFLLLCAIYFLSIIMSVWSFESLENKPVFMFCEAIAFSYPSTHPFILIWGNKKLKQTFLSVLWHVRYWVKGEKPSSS
Chain of hT2R7 (Q9NYW3 whole entry): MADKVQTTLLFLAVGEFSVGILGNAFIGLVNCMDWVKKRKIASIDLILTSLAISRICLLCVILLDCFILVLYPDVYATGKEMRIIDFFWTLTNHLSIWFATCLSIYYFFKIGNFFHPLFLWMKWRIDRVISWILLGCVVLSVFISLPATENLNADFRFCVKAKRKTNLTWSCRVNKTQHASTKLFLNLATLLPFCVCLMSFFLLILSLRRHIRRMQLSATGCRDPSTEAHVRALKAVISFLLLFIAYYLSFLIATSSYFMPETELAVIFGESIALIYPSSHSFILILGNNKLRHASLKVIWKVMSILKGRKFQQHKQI
Chain of hT2R5 (Q9NYW4 whole entry): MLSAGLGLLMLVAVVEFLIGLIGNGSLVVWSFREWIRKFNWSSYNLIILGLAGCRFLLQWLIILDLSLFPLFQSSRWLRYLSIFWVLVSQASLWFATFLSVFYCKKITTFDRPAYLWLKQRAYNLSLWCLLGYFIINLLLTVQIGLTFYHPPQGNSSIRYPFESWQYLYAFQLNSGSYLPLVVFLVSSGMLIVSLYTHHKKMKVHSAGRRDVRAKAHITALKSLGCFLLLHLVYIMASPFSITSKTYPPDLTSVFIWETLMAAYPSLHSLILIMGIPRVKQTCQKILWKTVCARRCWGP
Chain of hT2R4 (Q9NYW5 whole entry): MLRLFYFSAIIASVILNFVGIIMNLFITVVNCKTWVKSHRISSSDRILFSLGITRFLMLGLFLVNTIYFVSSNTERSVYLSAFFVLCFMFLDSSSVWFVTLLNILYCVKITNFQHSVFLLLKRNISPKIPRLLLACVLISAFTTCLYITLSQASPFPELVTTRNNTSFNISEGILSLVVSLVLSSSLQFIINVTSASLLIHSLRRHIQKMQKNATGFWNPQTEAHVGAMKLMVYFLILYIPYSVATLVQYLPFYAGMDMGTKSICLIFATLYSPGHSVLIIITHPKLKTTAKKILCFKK
Chain of hT2R10 (Q9NYW0 whole entry): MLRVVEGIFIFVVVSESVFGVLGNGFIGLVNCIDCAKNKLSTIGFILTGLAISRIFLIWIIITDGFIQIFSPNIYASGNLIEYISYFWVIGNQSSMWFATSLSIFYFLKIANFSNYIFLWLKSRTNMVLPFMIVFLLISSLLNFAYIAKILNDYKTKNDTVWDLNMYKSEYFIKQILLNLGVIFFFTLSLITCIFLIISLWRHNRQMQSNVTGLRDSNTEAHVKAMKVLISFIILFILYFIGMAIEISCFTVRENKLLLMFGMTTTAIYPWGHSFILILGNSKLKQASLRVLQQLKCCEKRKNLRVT

| SMILES | inhibition at 25 µM (hT2R64) | inhibition at 25 µM (hT2R4) | inhibition at 25 µM (hT2R61) | inhibition at 25 µM (hT2R71) | screening result against bitter receptor 44 (hT2R44) | screening result against bitter receptor 63 (hT2R63) | screening result against bitter receptor 67 (hT2R67) | inhibition at 25 µM (hT2R14 [1]) | inhibition at 25 µM (hT2R3) | screening result against bitter receptor 65 (hT2R65) | inhibition at 25 µM (hT2R13) | inhibition at 25 µM (hT2R16) | screening result against bitter receptor 55 (hT2R55) | pIC50 (hT2R14 [2]) | inhibition at 25 µM (hT2R7) | inhibition at 25 µM (hT2R10) | inhibition at 25 µM (hT2R75) | inhibition at 25 µM (hT2R5) | inhibition at 25 µM (hT2R9) |
| --- | --- | --- | --- | --- | --- | --- | --- | --- | --- | --- | --- | --- | --- | --- | --- | --- | --- | --- | --- |
| COc1ccc(CN(C2CCCc3ccccc32)S(=O)(=O)c2ccc(C(=O)O)cc2)cc1 (stereo not drawn) [Example 5-96, 4-(N-(4-methoxybenzyl)-N-(1,2,3,4-tetrahydronaphthalen-1-yl)sulfamoyl)benzoic acid] | 60 to 80% | 20 to 40% | > 80% | 40 to 60% | +++ (60% to 80% inhibition = +++) | ++++ (80% or greater inhibition = ++++) | + (20% to 40% inhibition = +) | > 80% | 20 to 40% | ++++ (80% or greater inhibition = ++++) | 20 to 40% | 20 to 40% | ++++ (80% or greater inhibition = ++++) | – | – | – | – | – | – |
| Cc1ccc(S(=O)(=O)N(Cc2ccc(F)cc2)CC2CCC(C(=O)O)CC2)cc1 (stereo not drawn) [Example 5-20, 4-((N-(4-fluorobenzyl)-4-methylphenylsulfonamido)methyl)-cyclohexanecarboxylic acid] | 60 to 80% | – | > 80% | 40 to 60% | +++ (60% to 80% inhibition = +++) | ++ (40% to 60% inhibition = ++) | – | > 80% | > 80% | + (20% to 40% inhibition = +) | 20 to 40% | 40 to 60% | ++++ (80% or greater inhibition = ++++) | 7.08 | 20 to 40% | 40 to 60% | 40 to 60% | 20 to 40% | 20 to 40% |
